Results as given in US4371537A, “Sulfur-substituted phenoxypyridines having antiviral activity” (The Dow Chemical Company, priority 1981, dated 1983).
Converted amounts (≈) assume the structure as drawn.

How the values were obtained:
[1] = Cytotoxicity in tissue culture testing (HeLa monolayers); format: cell-based; conditions: human; HeLa cells; observed at 48 and 72 hours post-treatment; read-out: Cytotoxicity: concentration of the compound found to be toxic to the cell
How it was run: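 Compound in Eagle's medium plus fetal calf serum was applied to monolayered HeLa cells; cultures were then infected with RV-1A, RV-2 or Coxsackie A21, with RV-5, RV-8 or RV-64 for some compounds. Controls received no compound or no virus.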

[2] = test system: rhinovirus type 1A (RV-1A); experiment: Tissue culture testing, rhinovirus type 1A in HeLa cells; format: cell-based; conditions: Enterovirus, 48 and 72 hours, NA = not active at the standard test conditions, read-out: RV-1A: lowest concentration of the compound necessary to cause a 50 percent reduction in cytopathic effect
How it was run: (§1)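 HeLa monolayers pretreated with compound in Eagle's medium with fetal calf serum, then challenged with virus; uninfected cell controls included. Value reported is the lowest compound concentration (μg/ml) needed for the effect.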

Rhinovirus Type 21 = experiment: Inhibition of cytopathic effect in WI-38 cell culture tubes, rhinovirus type 21; format: cell-based; conditions: Enterovirus; 25 μg/ml; WI-38 cells; read-out: Inhibition grade, Rhinovirus Type 21
Protocol: (§2) The test compound was dissolved in an appropriate solvent (generally dimethyl sulfoxide) and incubated at 56° C. for at least 15 minutes and this solution was then used to prepare various test solutions having the desired concentration of test compound in preheated WI maintenance medium (49% Eagles, 49% medium 199, 2% fetal calf serum and antibiotics).
(§3) Triplicate cell culture tubes (WI-38 human embryonic lung cell culture tubes) were fed with 1 ml of medium containing the compound at specified concentrations and inoculated with 3-300 TCID50 (3-300 times the tissue culture infective dose 50, i.e., the dose required to infect 50% of the cell cultures tested). Simultaneous viral titrations were performed. The tissue cultures were supplemented with fresh medium when necessary (around 3-4 days) until viral titrations were completed.
(§4) The cell culture tubes were examined dialy for cytopathic effect. […] Comparisons were made at that time with the percentage of cell sheet destruction in tubes containing virus compound mixtures. Observed differences of 75% or more were graded "+", 74-50% as "±", and less than 50% as "-" inhibition.

rhinovirus type 2 (RV-2) = experiment: Tissue culture testing, rhinovirus type 2 in HeLa cells; format: cell-based; conditions: Enterovirus, 48 and 72 hours, NA = not active at the standard test conditions, read-out: RV-2: lowest concentration of the compound necessary to cause a 50 percent reduction in cytopathic effect
How it was run: as §1

Rhinovirus Type 64 = experiment: Inhibition of cytopathic effect in WI-38 cell culture tubes, rhinovirus type 64; format: cell-based; conditions: Enterovirus; 25 μg/ml; WI-38 cells; read-out: Inhibition grade, Rhinovirus Type 64
Protocol: as §2, §3, §4

Rhinovirus Type 13 = experiment: Inhibition of cytopathic effect in WI-38 cell culture tubes, rhinovirus type 13; format: cell-based; conditions: Enterovirus; 25 μg/ml; WI-38 cells; read-out: Inhibition grade, Rhinovirus Type 13
Protocol: as §2, §3, §4

Rhinovirus Type 10 = experiment: Inhibition of cytopathic effect in WI-38 cell culture tubes, rhinovirus type 10; format: cell-based; conditions: Enterovirus; 25 μg/ml; WI-38 cells; read-out: Inhibition grade, Rhinovirus Type 10
Protocol: as §2, §3, §4

Rhinovirus Type 6 = experiment: Inhibition of cytopathic effect in WI-38 cell culture tubes, rhinovirus type 6; format: cell-based; conditions: Enterovirus; 25 μg/ml; WI-38 cells; read-out: Inhibition grade, Rhinovirus Type 6
Protocol: as §2, §3, §4

Rhinovirus Type 8 = experiment: Inhibition of cytopathic effect in WI-38 cell culture tubes, rhinovirus type 8; format: cell-based; conditions: Enterovirus; 25 μg/ml; WI-38 cells; read-out: Inhibition grade, Rhinovirus Type 8
Protocol: as §2, §3, §4

Rhinovirus Type 39 = experiment: Inhibition of cytopathic effect in WI-38 cell culture tubes, rhinovirus type 39; format: cell-based; conditions: Enterovirus; 25 μg/ml; WI-38 cells; read-out: Inhibition grade, Rhinovirus Type 39
Protocol: as §2, §3, §4

Rhinovirus Type 81 = experiment: Inhibition of cytopathic effect in WI-38 cell culture tubes, rhinovirus type 81; format: cell-based; conditions: Enterovirus; 25 μg/ml; WI-38 cells; read-out: Inhibition grade, Rhinovirus Type 81
Protocol: as §2, §3, §4

Rhinovirus Type 56 = experiment: Inhibition of cytopathic effect in WI-38 cell culture tubes, rhinovirus type 56; format: cell-based; conditions: Enterovirus; 25 μg/ml; WI-38 cells; read-out: Inhibition grade, Rhinovirus Type 56
Protocol: as §2, §3, §4

Rhinovirus Type 60 = experiment: Inhibition of cytopathic effect in WI-38 cell culture tubes, rhinovirus type 60; format: cell-based; conditions: Enterovirus; 25 μg/ml; WI-38 cells; read-out: Inhibition grade, Rhinovirus Type 60
Protocol: as §2, §3, §4

Rhinovirus Type 29 = experiment: Inhibition of cytopathic effect in WI-38 cell culture tubes, rhinovirus type 29; format: cell-based; conditions: Enterovirus; 25 μg/ml; WI-38 cells; read-out: Inhibition grade, Rhinovirus Type 29
Protocol: as §2, §3, §4

rhinovirus type 8 (RV-8) = experiment: Tissue culture testing, rhinovirus type 8 in HeLa cells; format: cell-based; conditions: Enterovirus, 48 and 72 hours, NA = not active at the standard test conditions, read-out: RV-8: lowest concentration of the compound necessary to cause a 50 percent reduction in cytopathic effect
Protocol: (§5) Monolayered HeLa cells in 16 millimeter (mm) tissue culture dishes were treated with 1 ml of culture medium (Eagles medium supplemented with fetal calf serum) containing subject compound at an appropriate concentration or containing no compound at all. Culture media such as those described herein are more fully described in standard texts, as for example, Kuchler's Biochemical Methods in Cell Culture and Virology, Dowden, Hutchinson and Ross, Inc., Stroudsberg, PA (1977). Following treatment, cells were challenged with 0.05 ml of rhinovirus type 1A (RV-1A), rhinovirus type 2 (RV-2) or Coxsackie A21 virus (Cox A21) in culture medium. Some of the compounds were also tested against rhinovirus type 5 (RV-5), rhinovirus type 8 (RV-8) or rhinovirus type 64 (RV-64). Cell controls received no viruses.
(§6) ^2 Lowest concentration of the compound (μg/ml) necessary to cause

Rhinovirus Type 17 = experiment: Inhibition of cytopathic effect in WI-38 cell culture tubes, rhinovirus type 17; format: cell-based; conditions: Enterovirus; 25 μg/ml; WI-38 cells; read-out: Inhibition grade, Rhinovirus Type 17
Protocol: as §2, §3, §4

Rhinovirus Type 4 = experiment: Inhibition of cytopathic effect in WI-38 cell culture tubes, rhinovirus type 4; format: cell-based; conditions: Enterovirus; 25 μg/ml; WI-38 cells; read-out: Inhibition grade, Rhinovirus Type 4
Protocol: as §2, §3, §4

[3] = test system: Coxsackie A21 virus (Cox A21); experiment: Tissue culture testing, Coxsackie A21 virus in HeLa cells; format: cell-based; conditions: 48 and 72 hours, NA = not active at the standard test conditions, read-out: Cox A21: lowest concentration of the compound necessary to cause a 50 percent reduction in cytopathic effect
How it was run: as §1

Rhinovirus Type 59 = experiment: Inhibition of cytopathic effect in WI-38 cell culture tubes, rhinovirus type 59; format: cell-based; conditions: Enterovirus; 25 μg/ml; WI-38 cells; read-out: Inhibition grade, Rhinovirus Type 59
Protocol: as §2, §3, §4

Hanks Untyped = experiment: Inhibition of cytopathic effect in WI-38 cell culture tubes, Hanks Untyped; format: cell-based, rhinovirus; conditions: Enterovirus; 25 μg/ml; WI-38 cells; read-out: Inhibition grade, Hanks Untyped
Protocol: as §2, §3, §4

rhinovirus type 5 (RV-5) = experiment: Tissue culture testing, rhinovirus type 5 in HeLa cells; format: cell-based; conditions: Enterovirus, 48 and 72 hours, NA = not active at the standard test conditions, read-out: RV-5: lowest concentration of the compound necessary to cause a 50 percent reduction in cytopathic effect
Protocol: as §5, §6

Rhinovirus Type 68 = experiment: Inhibition of cytopathic effect in WI-38 cell culture tubes, rhinovirus type 68; format: cell-based; conditions: Enterovirus; 25 μg/ml; WI-38 cells; read-out: Inhibition grade, Rhinovirus Type 68
Protocol: as §2, §3, §4

Rhinovirus Type 75 = experiment: Inhibition of cytopathic effect in WI-38 cell culture tubes, rhinovirus type 75; format: cell-based; conditions: Enterovirus; 25 μg/ml; WI-38 cells; read-out: Inhibition grade, Rhinovirus Type 75
Protocol: as §2, §3, §4

Rhinovirus Type 19 = experiment: Inhibition of cytopathic effect in WI-38 cell culture tubes, rhinovirus type 19; format: cell-based; conditions: Enterovirus; 25 μg/ml; WI-38 cells; read-out: Inhibition grade, Rhinovirus Type 19
Protocol: as §2, §3, §4

Rhinovirus Type 58 = experiment: Inhibition of cytopathic effect in WI-38 cell culture tubes, rhinovirus type 58; format: cell-based; conditions: Enterovirus; 25 μg/ml; WI-38 cells; read-out: Inhibition grade, Rhinovirus Type 58
Protocol: as §2, §3, §4

Cox A21 = experiment: Single Oral Dose test in mice challenged IP with Cox A21; format: in vivo, Swiss male mice; conditions: 600 mg/kg P.O. 3 h after IP challenge; >3.84 significant (95% confidence level)
Protocol: In addition, some of the compounds were tested in animals utilizing the following procedure, hereinafter referred to as the "Single Oral Dose" test. Swiss male mice, 8-12 grams in weight were challenged intraperitoneally (IP) with 0.2 ml of a normally lethal dose, i.e., a virus dose sufficient to cause […].80-100% mortality in infected animals within 10 days of challenge of Cox A21, in phosphate buffered saline containing 1% heat inactivated fetal calf serum. Three hours later mice were treated orally (P.O.) with 0.2 ml of compound suspended in 0.5% hydroxypropyl methylcellulose (Methocel) or with 0.2 ml of 0.5% Methocel containing no compound. […] Mice were observed daily for 7-10 days post-challenge and deaths recorded. A modified Mantel-Haenzel combined chi-square procedure was used to determine significant difference between virus control and treated groups. Chi-square values greater than 3.84 are considered significant (95% confidence level) in this test.

Rhinovirus Type 74 = experiment: Inhibition of cytopathic effect in WI-38 cell culture tubes, rhinovirus type 74; format: cell-based; conditions: Enterovirus; 25 μg/ml; WI-38 cells; read-out: Inhibition grade, Rhinovirus Type 74
Protocol: as §2, §3, §4

RV-1A, RV-2 or Cox A21 = experiment: Summary of HeLa tissue culture testing against the test viruses; format: cell-based, rhinovirus types 1A and 2, Coxsackie A21 virus; conditions: for antiviral activity in tissue culture: active on RV-1A and RV-2 at a test concentration equivalent to the cytotoxic concentration
Protocol: as §5

Coxsackie A21 virus = experiment: Continuous Oral Feeding test in mice challenged IP with Coxsackie A21 virus; format: in vivo; conditions: po, 0.06 % in diet, 240 h
How it was run: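 Activity judged by chi-square on 10-day deaths versus untreated controls, with values above 3.84 counted active at 95% confidence. The IP challenge (0.2 ml/mouse, HeLa-grown virus, 80 to 100% lethal in 8 to 12 g mice) came on day 1, after diet containing 0.06% (weight percent) compound began on day 0.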

[4] = test system: rhinovirus type 64 (RV-64); experiment: Tissue culture testing, rhinovirus type 64 in HeLa cells; format: cell-based; conditions: Enterovirus, 48 and 72 hours, NA = not active at the standard test conditions, read-out: RV-64: lowest concentration of the compound necessary to cause a 50 percent reduction in cytopathic effect
Protocol: as §5, §6

Compound | MCC [1] [µg/mL] | EC50 [2] [µg/mL] | EC50 (rhinovirus type 2 (RV-2)) [µg/mL] | EC50 (rhinovirus type 8 (RV-8)) [µg/mL] | EC50 [3] [µg/mL] | EC50 (rhinovirus type 5 (RV-5)) [µg/mL] | Single Oral Dose X^2 (chi-square, deaths vs virus control) (Cox A21) | Continuous Oral Feeding X^2 (chi-square, deaths vs control) (Coxsackie A21 virus) | antiviral activity in tissue culture (RV-1A, RV-2 or Cox A21) | further results
CS(=O)(=O)c1ccc(Oc2ccc(Cl)c(Cl)c2)nc1 [Example 40, 2-(3,4-dichlorophenoxy)-5-(methylsulfonyl)pyridine] | 50 | ≤ 0.31 | 0.625 (≈ 1.96 µM) | ~12.5 (≈ 39.3 µM) | ≤ 6.25 | 25 (≈ 78.6 µM) | 22.807 |  |  | inhibition at 25 µg/mL (Rhinovirus Type 21): ≥ 75%; inhibition at 25 µg/mL (Rhinovirus Type 64): ≥ 75%; inhibition at 25 µg/mL (Rhinovirus Type 13): ≥ 75%; inhibition at 25 µg/mL (Rhinovirus Type 10): ≥ 75%; inhibition at 25 µg/mL (Rhinovirus Type 6): < 50%; inhibition at 25 µg/mL (Rhinovirus Type 8): < 50%; inhibition at 25 µg/mL (Rhinovirus Type 39): ≥ 75%; inhibition at 25 µg/mL (Rhinovirus Type 81): ≥ 75%; inhibition at 25 µg/mL (Rhinovirus Type 56): ≥ 75%; inhibition at 25 µg/mL (Rhinovirus Type 60): 50 to 74%; inhibition at 25 µg/mL (Rhinovirus Type 29): ≥ 75%; inhibition at 25 µg/mL (Rhinovirus Type 17): ≥ 75%; inhibition at 25 µg/mL (Rhinovirus Type 4): < 50%; inhibition at 25 µg/mL (Rhinovirus Type 59): 50 to 74%; inhibition at 25 µg/mL (Hanks Untyped): ≥ 75%; inhibition at 25 µg/mL (Rhinovirus Type 68): ≥ 75%; inhibition at 25 µg/mL (Rhinovirus Type 75): < 50%; inhibition at 25 µg/mL (Rhinovirus Type 19): ≥ 75%; inhibition at 25 µg/mL (Rhinovirus Type 58): ≥ 75%; inhibition at 25 µg/mL (Rhinovirus Type 74): ≥ 75%
CC(C)S(=O)(=O)c1ccc(Oc2ccc(C(=O)c3ccccc3)cc2)nc1 [Example 51] | 4 | 4 (≈ 10.5 µM) | 2 (≈ 5.24 µM) |  |  |  | 3.085 | 17.705 |  | antiviral activity in initial tissue culture testing (RV-1A, RV-2 or Cox A21; initial test): did not show activity against the test viruses; antiviral activity on retest (RV-1A, RV-2 or Cox A21; retest (data in Table 3), RV-1A and RV-2): did show activity against RV-1A and RV-2
CS(=O)(=O)c1cccc(Oc2ccc(Br)cc2)n1 [2-(4-bromophenoxy)-6-(methylsulfonyl)pyridine] |  |  |  |  |  |  |  |  | only marginally active | 
CCS(=O)(=O)c1cccnc1Oc1ccc(Cl)c(Cl)c1 [2-(3,4-dichlorophenoxy)-3-(ethylsulfonyl)pyridine] |  |  |  |  |  |  |  |  | only marginally active | 
CCS(=O)(=O)c1cccnc1Oc1ccc(C(=O)c2ccccc2)cc1 [Example 74] | 50 | 50 (≈ 136 µM) | ~50 (≈ 136 µM) |  |  |  |  |  | only marginally active | 
CS(=O)(=O)c1ccc(Oc2ccc(Br)cc2)nc1 [Example 29, 2-(4-bromophenoxy)-5-(methylsulfonyl)pyridine] | 50 | 0.625 (≈ 1.9 µM) | 0.625 (≈ 1.9 µM) | 6.25 (≈ 19 µM) | 5 (≈ 15.2 µM) | 25 (≈ 76.2 µM) | 5.275 | 20.885 |  | EC50 [4]: 0.625 µg/mL (≈ 1.9 µM)
